pKi: −log10 of the molar value. Where two headings read alike, the source gives them in different places.
Experiments:
[1] = biological target: Human α2δ-1 subunit of Cav2.2 calcium channel (Homo sapiens, UniProt P54289); experiment: Human α2δ-1 subunit of Cav2.2 calcium channel assay ([3H]-Gabapentin binding); details: human α2δ-1 enriched membranes, 15 nM [3H]-Gabapentin, binding expressed as Ki; read-out: α2δ1 binding activity
Method: Human α2δ-1 Subunit of Cav2.2 Calcium Channel Assay
Human α2δ-1 enriched membranes (2.5 μg) were incubated with 15 nM of radiolabeled [3H]-Gabapentin in assay buffer containing Hepes-KOH 10 mM, pH 7.4. NSB (non specific binding) was measured by adding 10 μM pregabalin. The binding of the test compound was measured at five different concentrations. After 60 min incubation at 27° C., binding reaction was terminated by filtering through Multiscreen GF/C (Millipore) presoaked in 0.5% polyethyleneimine in Vacuum Manifold Station, followed by 3 washes with ice-cold filtration buffer containing 50 mM Tris-HCl, pH 7.4. Filter plates were dried at 60° C. for 1 hour and 30 μl of scintillation cocktail were added to each well before radioactivity reading. Readings were performed in a Trilux 1450 Microbeta radioactive counter (Perkin Elmer).

human μ-opioid receptor = biological target: T1, human μ-opioid receptor (Homo sapiens, UniProt P35372); experiment: Human μ-opioid receptor radioligand assay ([3H]-DAMGO); type: binding
T1 construct: expressed in transfected cells; host or cells: CHO-K1
Method: Human μ-Opioid Receptor Radioligand Assay
To investigate binding properties of test compounds to human μ-opioid receptor, transfected CHO-K1 cell membranes and [^3H]-DAMGO (Perkin Elmer, ES-542-C), as the radioligand, were used. The assay was carried out with 20 μg of membrane suspension, 1 nM of [^3H]-DAMGO in either absence or presence of either buffer or 10 μM Naloxone for total and non-specific binding, respectively. Binding buffer contained Tris-HCl 50 mM, MgCl2 5 mM at pH 7.4. Plates were incubated at 27° C. for 60 minutes. After the incubation period, the reaction mix was then transferred to MultiScreen HTS, FC plates (Millipore), filtered and plates were washed 3 times with ice-cold 10 mM Tris-HCL (pH 7.4). Filters were dried and counted at approximately 40% efficiency in a MicroBeta scintillation counter (Perkin-Elmer) using EcoScint liquid scintillation cocktail. Preferably, transfected CHO-K1 cell membranes (20 μg) were incubated with 1 nM of [^3H]-DAMGO in assay buffer containing Tris-HCl 50 mM, MgCl2 5 mM at pH 7.4. NBS (non-specific binding) was measured by adding 10 μM Naloxone. The binding of the test compound was measured at five different concentrations. Plates were incubated at 27° C. for 60 minutes. After the incubation period, the reaction mix was then transferred to MultiScreen HTS, FC plates (Millipore), filtered and plates were washed 3 times with ice-cold 10 mM Tris-HCL (pH 7.4). Filters were dried and counted at approximately 40% efficiency in a MicroBeta scintillation counter (Perkin-Elmer) using EcoScint liquid scintillation cocktail.

[2] = transfected CHO-K1 cell membranes, 1 nM [3H]-DAMGO, binding expressed as Ki, read-out: Mu binding activity

T1 sequence (P35372 whole entry): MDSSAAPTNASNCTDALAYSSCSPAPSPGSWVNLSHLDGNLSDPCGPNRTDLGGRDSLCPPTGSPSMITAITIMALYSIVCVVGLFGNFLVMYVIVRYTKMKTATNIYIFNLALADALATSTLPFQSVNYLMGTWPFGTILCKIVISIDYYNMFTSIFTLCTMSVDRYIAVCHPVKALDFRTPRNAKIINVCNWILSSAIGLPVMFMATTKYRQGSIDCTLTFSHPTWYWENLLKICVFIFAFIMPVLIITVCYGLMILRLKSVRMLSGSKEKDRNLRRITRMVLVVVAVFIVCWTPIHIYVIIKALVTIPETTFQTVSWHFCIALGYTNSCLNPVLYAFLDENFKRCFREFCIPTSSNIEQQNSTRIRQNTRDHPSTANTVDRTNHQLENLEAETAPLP
Human α2δ-1 subunit of Cav2.2 calcium channel, sequence (P54289 25-1103): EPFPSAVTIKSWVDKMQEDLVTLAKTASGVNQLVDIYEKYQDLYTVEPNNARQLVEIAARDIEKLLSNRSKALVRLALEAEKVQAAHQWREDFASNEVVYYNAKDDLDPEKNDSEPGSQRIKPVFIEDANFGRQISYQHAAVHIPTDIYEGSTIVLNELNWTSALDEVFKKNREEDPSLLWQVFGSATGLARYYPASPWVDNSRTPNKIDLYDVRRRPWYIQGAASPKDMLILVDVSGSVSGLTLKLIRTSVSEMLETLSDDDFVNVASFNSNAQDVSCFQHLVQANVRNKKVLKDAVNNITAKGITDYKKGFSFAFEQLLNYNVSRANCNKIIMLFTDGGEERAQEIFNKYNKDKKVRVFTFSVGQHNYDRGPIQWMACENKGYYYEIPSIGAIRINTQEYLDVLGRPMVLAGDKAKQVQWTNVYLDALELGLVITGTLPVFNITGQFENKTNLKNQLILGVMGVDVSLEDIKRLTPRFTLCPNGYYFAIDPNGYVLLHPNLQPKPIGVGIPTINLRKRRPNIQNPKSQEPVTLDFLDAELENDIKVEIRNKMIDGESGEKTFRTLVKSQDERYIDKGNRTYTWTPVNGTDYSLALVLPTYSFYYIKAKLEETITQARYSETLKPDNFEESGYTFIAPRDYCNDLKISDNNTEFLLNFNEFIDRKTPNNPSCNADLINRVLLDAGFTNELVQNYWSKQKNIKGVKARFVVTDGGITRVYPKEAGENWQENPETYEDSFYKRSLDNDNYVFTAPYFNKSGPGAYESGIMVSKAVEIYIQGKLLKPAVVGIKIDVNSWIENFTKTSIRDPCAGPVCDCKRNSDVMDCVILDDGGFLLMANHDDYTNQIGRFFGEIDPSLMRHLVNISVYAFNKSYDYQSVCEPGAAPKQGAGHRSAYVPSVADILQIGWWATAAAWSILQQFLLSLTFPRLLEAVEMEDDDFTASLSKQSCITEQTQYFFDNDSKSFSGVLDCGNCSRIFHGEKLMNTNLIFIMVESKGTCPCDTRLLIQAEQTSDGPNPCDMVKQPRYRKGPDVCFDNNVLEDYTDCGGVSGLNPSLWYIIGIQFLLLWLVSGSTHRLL

Row | Structure (SMILES) | pKi [1] | pKi (human μ-opioid receptor; [2]) | pKi (human μ-opioid receptor)
1 | CCOc1ccc(-n2nc3c(C4=CCN(C)CC4)nnc(C)c3c2C)c(F)c1 [Ex 2, 2-(4-Ethoxy-2-fluorophenyl)-3,4-dimethyl-7-(1-methyl-1,2,3,6-tetrahydropyridin-4-yl)-2H-pyrazolo[3,4-d]pyridazine] | ≤ 5.30 | < 6.30 | 
2 | CCOc1ccc(-n2nc3c(C4=CN(C(=O)OC(C)(C)C)CCC4)nnc(C)c3c2C)c(F)c1 [Ex 3, tert-Butyl 5-(2-(4-ethoxy-2-fluorophenyl)-3,4-dimethyl-2H-pyrazolo[3,4-d]pyridazin-7-yl)-3,4-dihydropyridine-1(2H)-carboxylate] | ≤ 5.30 | < 6.30 | 
3 | CCOc1ccc(-n2nc3c(/C=C/CNC(=O)OC(C)(C)C)nnc(C)c3c2C)c(F)c1 [Ex 4, tert-Butyl (E)-(3-(2-(4-ethoxy-2-fluorophenyl)-3,4-dimethyl-2H-pyrazolo[3,4-d]pyridazin-7-yl)allyl)carbamate] | ≤ 5.30 | < 6.30 | 
4 | CCOc1ccc(-n2nc3c(/C=C/CN(C)C(=O)OC(C)(C)C)nnc(C)c3c2C)c(F)c1 [Ex 5, tert-Butyl (E)-(3-(2-(4-ethoxy-2-fluorophenyl)-3,4-dimethyl-2H-pyrazolo[3,4-d]pyridazin-7-yl)allyl)(methyl)carbamate] | ≤ 5.30 | < 6.30 | 
5 | CCOc1ccc(-n2nc3c(-c4ccc5ncn(CCNC(=O)OC(C)(C)C)c5c4)nnc(C)c3c2C)c(F)c1 [Ex 11, tert-butyl (2-(6-(2-(4-ethoxy-2-fluorophenyl)-3,4-dimethyl-2H-pyrazolo[3,4-d]pyridazin-7-yl)-1H-benzo[d]imidazol-1-yl)ethyl)carbamate] | < 5.30 | < 6.30 | 
6 | CCOc1ccc(-n2nc3c(C4CN(C(=O)OC(C)(C)C)C4)nnc(C)c3c2C)c(F)c1 [Ex 12, tert-Butyl 3-(2-(4-ethoxy-2-fluorophenyl)-3,4-dimethyl-2H-pyrazolo[3,4-d]pyridazin-7-yl)azetidine-1-carboxylate] | ≤ 5.30 | < 6.30 | 
7 | CCOc1ccc(-n2nc3c(C4CCN(C(=O)OC(C)(C)C)CC4)nnc(C)c3c2C)c(F)c1 [Ex 13, tert-Butyl 4-(2-(4-ethoxy-2-fluorophenyl)-3,4-dimethyl-2H-pyrazolo[3,4-d]pyridazin-7-yl)piperidine-1-carboxylate] | ≤ 5.30 | < 6.30 | 
8 | CCOc1ccc(-n2nc3c(C4CCCN(C(=O)OC(C)(C)C)C4)nnc(C)c3c2C)c(F)c1 (stereo not drawn) [Ex 15, tert-Butyl-3-(2-(4-ethoxy-2-fluorophenyl)-3,4-dimethyl-2H-pyrazolo[3,4-d]pyridazin-7-yl)piperidine-1-carboxylate] | ≤ 5.30 | < 6.30 | 
9 | CCOc1ccc(-n2nc3c(CCCNC(=O)OC(C)(C)C)nnc(C)c3c2C)c(F)c1 [Ex 16, tert-Butyl-(3-(2-(4-ethoxy-2-fluorophenyl)-3,4-dimethyl-2H-pyrazolo[3,4-d]pyridazin-7-yl)propyl)carbamate] | ≤ 5.30 | < 6.30 | 
10 | CCOc1ccc(-n2nc3c(CCCN(C)C(=O)OC(C)(C)C)nnc(C)c3c2C)c(F)c1 [Ex 17, tert-Butyl-(3-(2-(4-ethoxy-2-fluorophenyl)-3,4-dimethyl-2H-pyrazolo[3,4-d]pyridazin-7-yl)propyl)(methyl)carbamate] | ≤ 5.30 | < 6.30 | 
11 | CCOc1ccc(-n2nc3c(C4CCCNC4)nnc(C)c3c2C)c(F)c1 (stereo not drawn) [Ex 19, 2-(4-Ethoxy-2-fluorophenyl)-3,4-dimethyl-7-(piperidin-3-yl)-2H-pyrazolo[3,4-d]pyridazine] | ≤ 5.30 | < 6.30 | 
12 | CCOc1ccc(-n2nc3c(CCCNC)nnc(C)c3c2C)c(F)c1 [Ex 21, 3-(2-(4-Ethoxy-2-fluorophenyl)-3,4-dimethyl-2H-pyrazolo[3,4-d]pyridazin-7-yl)-N-methylpropan-1-amine] | ≤ 5.30 | < 6.30 | 
13 | CCOc1ccc(-n2nc3c(C4CNC4)nnc(C)c3c2C)c(F)c1 [Ex 22, 7-(Azetidin-3-yl)-2-(4-ethoxy-2-fluorophenyl)-3,4-dimethyl-2H-pyrazolo[3,4-d]pyridazine] | ≤ 5.30 | < 6.30 | 
14 | CCOc1ccc(-n2nc3c(CCN)nnc(C)c3c2C)c(F)c1 [Ex 23, 2-(2-(4-Ethoxy-2-fluorophenyl)-3,4-dimethyl-2H-pyrazolo[3,4-d]pyridazin-7-yl)ethan-1-amine] | ≤ 5.30 | < 6.30 | 
15 | CCOc1ccc(-n2nc3c(C4CCN(CCc5ccccc5)CC4)nnc(C)c3c2C)c(F)c1 [Ex 25, 2-(4-Ethoxy-2-fluorophenyl)-3,4-dimethyl-7-(1-phenethylpiperidin-4-yl)-2H-pyrazolo[3,4-d]pyridazine] | 5.52 to 6.30 |  | > 6.30
16 | CCOc1ccc(-n2nc3c(C4CCN(Cc5ccccc5)CC4)nnc(C)c3c2C)c(F)c1 [Ex 26, 7-(1-Benzylpiperidin-4-yl)-2-(4-ethoxy-2-fluorophenyl)-3,4-dimethyl-2H-pyrazolo[3,4-d]pyridazine] | > 6.30 |  | > 6.30

Second part, led by results:

Row | pKi [1] | pKi (human μ-opioid receptor; [2]) | Structure (SMILES) | pKi (human μ-opioid receptor)
17 | ≤ 5.30 | < 6.30 | CCOc1ccc(-n2nc3c(C4=CCN(C(=O)OC(C)(C)C)CC4)nnc(C)c3c2C)c(F)c1 [Ex 1, tert-Butyl 4-(2-(4-ethoxy-2-fluorophenyl)-3,4-dimethyl-2H-pyrazolo[3,4-d]pyridazin-7-yl)-3,6-dihydropyridine-1(2H)-carboxylate] | 
18 | 5.52 to 6.30 | < 6.30 | CCOc1ccc(-n2nc3c(-c4ccc(CN(C)C)cc4)nnc(C)c3c2C)c(F)c1 [Ex 6, 1-(4-(2-(4-Ethoxy-2-fluorophenyl)-3,4-dimethyl-2H-pyrazolo[3,4-d]pyridazin-7-yl)phenyl)-N,N-dimethylmethanamine] | 
19 | 5.52 to 6.30 | < 6.30 | CCOc1ccc(-n2nc3c(-c4ccc(CCN(C)C)cc4)nnc(C)c3c2C)c(F)c1 [Ex 7, 2-(4-(2-(4-Ethoxy-2-fluorophenyl)-3,4-dimethyl-2H-pyrazolo[3,4-d]pyridazin-7-yl)phenyl)-N,N-dimethylethan-1-amine] | 
20 | 5.52 to 6.30 | < 6.30 | CCOc1ccc(-n2nc3c(-c4cccc(CN(C)C)c4)nnc(C)c3c2C)c(F)c1 [Ex 8, 1-(3-(2-(4-Ethoxy-2-fluorophenyl)-3,4-dimethyl-2H-pyrazolo[3,4-d]pyridazin-7-yl)phenyl)-N,N-dimethylmethanamine] | 
21 | 5.52 to 6.30 | < 6.30 | CCOc1ccc(-n2nc3c(-c4cccc(CCN(C)C)c4)nnc(C)c3c2C)c(F)c1 [Ex 9, 2-(3-(2-(4-Ethoxy-2-fluorophenyl)-3,4-dimethyl-2H-pyrazolo[3,4-d]pyridazin-7-yl)phenyl)-N,N-dimethylethan-1-amine] | 
22 | 5.30 to 5.52 | < 6.30 | CCOc1ccc(-n2nc3c(-c4ccc5ncn(CCN(C)C)c5c4)nnc(C)c3c2C)c(F)c1 [Ex 10, 2-(6-(2-(4-Ethoxy-2-fluorophenyl)-3,4-dimethyl-2H-pyrazolo[3,4-d]pyridazin-7-yl)-1H-benzo[d]imidazol-1-yl)-N,N-dimethylethan-1-amine] | 
23 | 5.52 to 6.30 | < 6.30 | CCOc1ccc(-n2nc3c(C4CCN(C)CC4)nnc(C)c3c2C)c(F)c1 [Ex 14, 2-(4-Ethoxy-2-fluorophenyl)-3,4-dimethyl-7-(1-methylpiperidin-4-yl)-2H-pyrazolo[3,4-d]pyridazine] | 
24 | 5.52 to 6.30 | < 6.30 | CCOc1ccc(-n2nc3c(C4CCNCC4)nnc(C)c3c2C)c(F)c1 [Ex 18, 2-(4-Ethoxy-2-fluorophenyl)-3,4-dimethyl-7-(piperidin-4-yl)-2H-pyrazolo[3,4-d]pyridazine] | 
25 | 5.52 to 6.30 | < 6.30 | CCOc1ccc(-n2nc3c(CCCN)nnc(C)c3c2C)c(F)c1 [Ex 20, 3-(2-(4-Ethoxy-2-fluorophenyl)-3,4-dimethyl-2H-pyrazolo[3,4-d]pyridazin-7-yl)propan-1-amine] | 
26 | 5.30 to 5.52 | < 6.30 | CCOc1ccc(-n2nc3c(-c4ccc5ncn(CCN)c5c4)nnc(C)c3c2C)c(F)c1 [Ex 24, 2-(6-(2-(4-Ethoxy-2-fluorophenyl)-3,4-dimethyl-2H-pyrazolo[3,4-d]pyridazin-7-yl)-1H-benzo[d]imidazol-1-yl)ethan-1-amine] | 
27 | 5.52 to 6.30 | < 6.30 | CCOc1ccc(-n2nc3c(C4CCN(Cc5ccc(F)cc5)CC4)nnc(C)c3c2C)c(F)c1 [Ex 27, 2-(4-Ethoxy-2-fluorophenyl)-7-(1-(4-fluorobenzyl)piperidin-4-yl)-3,4-dimethyl-2H-pyrazolo[3,4-d]pyridazine] | 

— patent publication US20200190087A1 (priority 2016, published 2020)
